Measured values published in US20020107197A1, “Ligands for G protein coupled receptors and methods of using them” (priority 2000, published 2002).

What was measured:
Format in all cases: cell-based
GPR4 [1] = target: T1, GPR4 (Homo sapiens, UniProt P46093); assay: Single-cell intracellular calcium assay (fura-2) in GPR4-GFP-transfected MCF10A cells; settings: PTX 100 ng/ml, 16 h pretreatment
T1 construct: were used to generate full length GPR4, which was digested with EcoRI and Xba I and cloned into the pBs3HA vector; expressed in transfected cells
T1 sequence (P46093 whole entry): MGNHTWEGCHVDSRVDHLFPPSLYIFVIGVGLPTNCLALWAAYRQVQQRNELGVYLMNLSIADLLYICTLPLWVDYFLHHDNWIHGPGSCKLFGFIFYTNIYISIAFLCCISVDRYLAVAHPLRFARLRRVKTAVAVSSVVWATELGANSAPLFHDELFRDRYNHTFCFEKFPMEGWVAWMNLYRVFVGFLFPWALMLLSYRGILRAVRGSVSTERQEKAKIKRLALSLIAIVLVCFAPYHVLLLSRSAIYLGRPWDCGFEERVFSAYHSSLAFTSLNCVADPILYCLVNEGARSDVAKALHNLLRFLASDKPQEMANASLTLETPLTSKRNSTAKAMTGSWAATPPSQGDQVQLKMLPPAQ
Method: Measurement of [Ca^2+]i, was performed as described previously in Xu et al. (2000) Nat Cell Biol 2, 261-267. Briefly, pGPR4-GFP-transfected MCF10A cells were grown in specialized glass-bottom dishes (Bioptech, Inc., Butler, Pa.) and loaded with fura-2 in HEPES buffered saline. Using a dual-wavelength spectrofluorometer (RFK-6002, Photon Technology Int'l, So. Brunswick, N.J.) coupled to an inverted fluorescence microscope (Olympus, IX-70, Lake Success, N.Y.), GFP-positive cells were identified using an excitation wavelength of 488 nm, a dichroic 505 nm long-pass filter and an emitter filter at bandpass of 535 nm (Chroma Technology, Brattleboro, Vt.). Measurements of [Ca^2+]i were performed on individual GPR4-GFP positive cells at excitation wavelengths of 340 and 380 nm and an emission wavelength of 510 nm. Conversion of the 340/380 ratio value into [Ca^2+]i in nM was estimated by comparing the cellular fluorescence ratio with ratios acquired using fura-2 (free acid) in buffers containing known Ca^2+ concentrations. [Ca^2+]i was then calculated as described by Grynkiewicz et al. (1985) J Biol Chem 260, 3440-3450. All calcium assays were performed in the presence of 1 mM EGTA in the assay buffers. Therefore, intracellular calcium release, not calcium influx, was analyzed.
To test whether GPR4 is a receptor for SPC, MCF10A cells were transiently transfected with pGPR4-GFP.
The GFP receptor fusion was used to identify positively transfected cells, and single-cell calcium assays were performed as described in our previous studies, such as Xu et al. (2000) Nat Cell Biol 2, 261-267.

GPR4 [2] = target: T1, GPR4; assay: SRE luciferase reporter in GPR4-transfected HEK293 cells; settings: PTX 100 ng/ml 16 h; C3-exoenzyme co-transfected
Method: The serum-response element (SRE) reporter system is a sensitive assay for receptors of lipid factors (An et al. (1998) J Biol Chem 273, 7906-7910; An et al. (1999) Mol Pharmacol 55, 787-794). The SRE reporter system used herein (pSRE-Luc) was a gift from Dr. Songzhu An (UCSF), or may be purchased from Stratagene (La Jolla, Calif.). Both systems give identical results. HEK293 and HEK293GPR4 cells were cultured in RPMI1640 with 10% FBS in 10 cm dishes to ˜85% confluence. To the cells in each dish, pSRE-Luc (10 μg) was transfected in the presence of 60 μl LipofectAMINE reagent. Cells were seeded in 96-well plates 16 h after transfection, incubated for another 24 h in RPMI1640 with 10% FBS, and starved in serum-free medium for 16 h. SPC (dissolved in PBS to 10 mM) and other lipids (LPCs were dissolved in 70% ethanol. Other lipids were dissolved in PBS, 70-95% ethanol, or 100% MeOH) were diluted in serum free RPMI 1640 and added to the cells, followed by a 10 h incubation. Luciferase activity was measured in Microlite™ 1 plates (DYNEX Technologies, Inc., Virginia) using 60 μl of cell lysate and 20 μl luciferase substrate. PTX (100 ng/ml) was added during the 16 h serum starvation period and pcDNA1-C3 (encoding the C3-exoenzyme, 2 μg) was co-transfected with pSRE-Luc (10 μg). All experiments were performed in quadruplicate and were repeated at least three times. The Student's t test was performed using the GraphPad Instat software (San Diego, Calif.). p<0.05 was considered to be statistically significant.

GPR4 [3] = target: T1, GPR4; assay: ERK MAP kinase activation (phospho-ERK Western blot) in GPR4-infected Swiss 3T3 cells; settings: PTX 100 ng/ml 12-16 h
Method: MAP kinases are key signaling intermediates of DNA synthesis and cell proliferation. Swiss 3T3 cells were infected with MSCV GPR4-ires-GFP or MSCV ires-GFP, and subsequently cells sorted by FACS for positive expression of GFP as described previously (Kabarowski et al. (2000) Proc Natl Acad Sci USA. 97, 12109-12114). Cells were plated in 6-well plates in DMEM containing 5% FBS, serum-starved overnight, and then treated lipids in DMEM for the indicated times. Cells were lysed on ice in RIPA buffer containing 50 mM Tris-HCl, pH 7.5, 1% Nonidet P-40, 0.5% deoxycholate,0.1% SDS, 150 mM NaCl, 2 mM EGTA, 25 mM sodium fluoride, 1 mM sodium orthovanadate, and 1× protease inhibitors (Sigma P8340). Lysates containing equal amounts of protein were separated on 10% SDS-polyacrylamide gels and transferred onto nitrocellulose membranes. Antibodies against phosphorylated ERK1/2 (Cell Signaling Technologies; Beverly, Mass.) were used to probe the membrane and the ECL system (Amersham) was used for detection. To normalize the amounts of protein loaded in each lane, membranes were stripped and re-probed with antibodies against total ERK (Cell Signaling Technologies). In some experiments, cells were pretreated with 100 ng/ml PTX for 12-16 h prior to SPC and LPC stimulation.

OGR1 = target: T2, OGR1 (Homo sapiens, UniProt Q15743); assay: ERK activation in OGR1-infected Swiss 3T3 cells
T2 construct: expressed in transfected cells
T2 sequence (Q15743 whole entry, species assumed): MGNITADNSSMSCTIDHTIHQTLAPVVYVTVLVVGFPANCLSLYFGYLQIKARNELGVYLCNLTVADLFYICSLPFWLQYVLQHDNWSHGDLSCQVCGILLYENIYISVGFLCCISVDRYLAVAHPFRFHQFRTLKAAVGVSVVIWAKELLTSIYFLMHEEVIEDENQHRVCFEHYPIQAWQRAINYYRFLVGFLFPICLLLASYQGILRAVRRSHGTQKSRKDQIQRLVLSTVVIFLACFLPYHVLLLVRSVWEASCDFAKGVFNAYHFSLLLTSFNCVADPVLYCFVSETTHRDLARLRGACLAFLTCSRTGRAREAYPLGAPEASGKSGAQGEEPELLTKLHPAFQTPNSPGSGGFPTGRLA

GPR4 [4] = target: T1, GPR4; assay: DNA synthesis ([3H]thymidine incorporation) in GPR4-infected Swiss 3T3 cells; settings: PTX 100 ng/ml for 16 h; GFP- and GPR4-GFP expressing cells
Method: The effect of SPC and LPC on DNA synthesis was measured using [^3H] thymidine incorporation. Briefly, GPR4-ires-GFP- and GFP-Swiss 3T3 cells were plated in 96-well plates, serum-starved for 24 h, and treated with SPC, LPC, or other lipids in serum-free DMEM for 24 h. Cells were incubated with 0.75 μCi/ml [^3H]thymidine in serum-free DMEM for the last 18 h. Cells were harvested onto filter papers presoaked in 1% polyethylenimine using the automated cell harvester HARVEST 96. Incorporated [^3H]thymidine was counted in a 1450 Microbeta Trilux Liquid Scintillation and Luminescence Counter (Perkin-Elmer-Wallac, Inc.).

pertussis toxin [PTX]
effect of PTX on [Ca2+]i response to SPC and LPC (GPR4 [1]): completely abolished
inhibition of SRE-reporter activation by SPC and 16:0-LPC (GPR4 [2]): partially inhibited SRE-reporter activation
PTX sensitivity of SPC-induced ERK activation (GPR4 [3]): sensitive to PTX
PTX sensitivity of SPC-induced ERK activation (OGR1): PTX-insensitive
effect of PTX on DNA synthesis stimulated by SPC (GPR4 [4]): inhibited by PTX
